Values quoted from earlier work in US20170296666A1, “Stable Pharmaceutical Composition Of Amorphous Ticagrelor” (Amneal Pharmaceuticals Company GmbH, priority 2016, published 2017).

Conditions: class IV = low solubility and low permeability

CCCSc1nc(N[C@@H]2C[C@H]2c2ccc(F)c(F)c2)c2nnn([C@@H]3C[C@H](OCCO)[C@@H](O)[C@H]3O)c2n1 [Ticagrelor, (1S,2S,3R,5S)-3-[7-{[(1/R,2S)-2-(3,4-difluorophenyl)cyclopropyl]amino}-5 (propylthio)-3H-[1,2,3]-triazolo[4,5-d]pyrimidin-3-yl]-5-(2-hydroxyethoxy) cyclopentane-1,2-diol]
Biopharmaceutics Classification System (BCS) class: class IV
